# Article PMC11814485, “Screening of homing and tissue-penetrating peptides by microdialysis and in vivo phage display” (Life Science Alliance, 2025)
# Test system: retina (OIR model)
# Assay: Homing of FAM-peptides to retina and vitreous in oxygen-induced retinopathy (OIR) and to normal retina
# Type: in vivo, mouse (C57BL/6Rj)
# Conditions: for peptide accumulation in the vitreous of the OIR retina relative to the control peptide / area of positive staining in OIR retina relative to a control peptide: OIR mice P17, 5 mg/kg, 120 min circulation, anti-FAM; for area of positive staining in OIR retina relative to a control peptide: N = 8; for homing signal in OIR retinas around retinal and preretinal blood vessels: OIR mice P17, 120 min, anti-FAM staining
# Method: Figure 3. Microdialysis-captured peptides home to skin wounds and penetrate blood–retina barrier in retinopathy. Systemically administered homing peptides CDD, CPK, and CYH accumulate in skin wounds and penetrate blood–retina barrier in retinopathy. Full-thickness wounds, 6 mm in diameter, in the back skin of 8-wk-old male mice were used. After 7 d, each peptide or PBS was injected into the tail vein. For retinopathy experiments, oxygen-induced retinopathy (OIR) was induced by placing mouse pups at day P7 in a hyperoxia chamber for 5 d. On P17, when the angiogenesis peaks in this OIR model, the peptides were injected into the tail vein. The peptides circulated for 150 min (wounds) and 120 min (OIR) before the vasculature was thoroughly perfused. The skin wounds and eyeballs were fixed, and histological samples stained with anti-FAM and hematoxylin. Peptide homing was quantified with the automated image analysis system. (A) Microdialysis-identified peptides home to skin wounds. […] (D) All three microdialysis-identified peptides also accumulate substantially in the vitreous in the OIR model. *P < 0.05, **P < 0.01, ***< 0.001. Each datapoint represents an individual wound, retina, or vitreous. N = 3 for skin wound, and N = 6 and N = 8 for normal and OIR retinas.
# We wanted to explore whether the new wound-penetrating peptides externalize and penetrate tissues that have an additional barrier around the blood vessels. The retinal blood vessels have an additional element, blood–retina barrier (BRB) that hinders the access of systemically administered drugs to retina ([Lahdenranta et al, 2007]; [Sweeney et al, 2019]; [Vähätupa, et al, 2020b]). Thus, we explored the homing of the new peptides to the normal retina and to the retinal angiogenesis in the oxygen-induced retinopathy (OIR) model ([Vähätupa, et al, 2020b]). […] Next, we quantified the area of positive staining in the retina. There was ninefold more of CYH (P < 0.01) and 120-fold and 88-fold more of CDD and CPK than of a control peptide in OIR retinas (P < 0.0001 for the CDD and CPK peptides) (Fig 3C).
# Figure 4. Microdialysis-captured peptides home and penetrate to retina in retinopathy. The CDD, CPK, and CYH peptides accumulate in the retina and vitreous in oxygen-induced retinopathy (OIR). The OIR model was carried out as described previously ([Vähätupa et al, 2020b]). At P17, the peptides were injected into the tail vein and circulated for 120 min before the vasculature was thoroughly perfused. The eyeballs were fixed and histological sections stained with anti-FAM antibody and hematoxylin. (A) None of the tested peptides homed to the normal retina after the systemic administration at P17. (B) Three microdialysis-identified homing peptides homed and penetrated into the retina in OIR at the peak of angiogenesis at P17. The peptides also accumulate in the vitreous in the OIR model. (A, B, C) High-magnification images of peptide accumulation in OIR retina. The scale bar is 100 μm for (A, B) and 20 μm for (C). Images are representative of N = 6 and N = 8 for normal and OIR retinas.
# WT C57BL/6Rj mice were used for the OIR experiments ([Vähätupa, et al, 2020a]). The OIR model was performed as described in detail previously ([Vähätupa, et al, 2020a]; [De Rossi et al, 2021]). Briefly, to induce retinopathy in the retina, the pups and their nursing mothers were exposed to 75% oxygen in a custom-made chamber (ProOx P110 oxygen controller; BioSpherix Ltd.) at postnatal day 7 (P7) for 5 d until P12 when they were returned to normal room air. The homing experiments were performed at P17 (late hypoxic phase and the peak of neovascularization) ([Vähätupa et al, 2021]). Control animals were housed under normal room air conditions, and retinas were harvested on the corresponding day (P17). All retina experiments were conducted under the ARVO Statement for the Use of Animals in Ophthalmic and Vision Research guidelines. […]
Sequence,peptide accumulation in the vitreous of the OIR retina relative to the control peptide,area of positive staining in OIR retina relative to a control peptide,homing signal in OIR retinas around retinal and preretinal blood vessels
CDDYQQISC [FAM-labeled synthetic peptide …],67.2 ×,120 fold,strong homing signal
CPKKHHLDC [FAM-labeled synthetic peptide …],80.3 ×,88 fold,strong homing signal
CYHDTYPNC [FAM-labeled synthetic peptide …],16.9 ×,ninefold,strong homing signal
